Consider two compounds from PubChem BioAssay AID1053155 (Broad Institute, 2014).

The term AC50 denotes the concentration at which the activity in the assay is half-maximal. As usually defined, the fold induction is the ratio of treated to control signal.

In the test the target is Low-density lipoprotein receptor (Homo sapiens) (UniProt P01130). Put plainly: increase of LDL receptor protein in hepatoma cells – cell-based, HepG2, ELISA, plate reader, cherry-pick, orthogonal assay for Trib1 inducer project, dose response (AID 1053155). The conditions noted are these: HepG2 LDLR protein ELISA, 24 h; for fold induction: measured here: max LDLR protein fold induction, stronger effect = higher value. On the technique in general: An ELISA detects its analyte on a solid surface through an enzyme-linked reagent.
Low-density lipoprotein receptor (Homo sapiens), sequence (P01130 whole entry, looked up): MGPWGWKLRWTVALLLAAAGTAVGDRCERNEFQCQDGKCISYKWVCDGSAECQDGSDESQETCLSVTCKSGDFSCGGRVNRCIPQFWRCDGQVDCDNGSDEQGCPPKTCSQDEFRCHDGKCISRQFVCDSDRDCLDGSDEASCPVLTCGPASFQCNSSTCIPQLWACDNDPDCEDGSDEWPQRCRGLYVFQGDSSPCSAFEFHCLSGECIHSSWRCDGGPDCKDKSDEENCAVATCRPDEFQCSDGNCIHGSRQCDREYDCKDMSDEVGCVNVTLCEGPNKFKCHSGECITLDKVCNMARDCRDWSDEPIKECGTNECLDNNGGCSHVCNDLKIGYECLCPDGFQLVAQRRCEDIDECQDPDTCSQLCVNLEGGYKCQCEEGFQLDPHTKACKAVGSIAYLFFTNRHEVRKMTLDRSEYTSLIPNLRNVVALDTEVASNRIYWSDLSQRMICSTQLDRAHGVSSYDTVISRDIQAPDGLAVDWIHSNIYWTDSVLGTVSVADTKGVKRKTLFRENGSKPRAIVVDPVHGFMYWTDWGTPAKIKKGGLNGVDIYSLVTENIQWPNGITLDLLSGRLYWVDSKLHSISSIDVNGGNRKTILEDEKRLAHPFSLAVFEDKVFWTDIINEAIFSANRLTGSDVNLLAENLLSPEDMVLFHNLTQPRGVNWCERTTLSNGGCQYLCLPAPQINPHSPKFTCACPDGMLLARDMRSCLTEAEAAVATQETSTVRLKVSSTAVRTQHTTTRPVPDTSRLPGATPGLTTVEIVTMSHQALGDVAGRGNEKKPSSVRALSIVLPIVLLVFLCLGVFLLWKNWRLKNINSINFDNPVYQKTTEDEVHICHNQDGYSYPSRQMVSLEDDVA

Consider `CN1C(=O)c2cc(NC(=O)c3ccc(C(F)(F)F)cc3)ccc2OC[C@@H]2O[C@H](CC(=O)NC3Cc4ccccc4C3)CC[C@@H]21`, for which the AC50 is 0.55 µM and the fold induction came out at 4.6.
For `CN1C(=O)c2cc(NC(=O)c3ccc(C(F)(F)F)cc3)ccc2OC[C@@H]2O[C@@H](CC(=O)NC3Cc4ccccc4C3)CC[C@@H]21`, the AC50 was 18 µM and the fold induction was 3.3.
